Biological target: T1, human full-length glucocorticoid receptor (Homo sapiens, UniProt P04150)
T1 construct: recombinantly expressed human full-length glucocorticoid receptor; purchased PanVera Co., Madison, Wis; P2816
T1 sequence (P04150 1-777): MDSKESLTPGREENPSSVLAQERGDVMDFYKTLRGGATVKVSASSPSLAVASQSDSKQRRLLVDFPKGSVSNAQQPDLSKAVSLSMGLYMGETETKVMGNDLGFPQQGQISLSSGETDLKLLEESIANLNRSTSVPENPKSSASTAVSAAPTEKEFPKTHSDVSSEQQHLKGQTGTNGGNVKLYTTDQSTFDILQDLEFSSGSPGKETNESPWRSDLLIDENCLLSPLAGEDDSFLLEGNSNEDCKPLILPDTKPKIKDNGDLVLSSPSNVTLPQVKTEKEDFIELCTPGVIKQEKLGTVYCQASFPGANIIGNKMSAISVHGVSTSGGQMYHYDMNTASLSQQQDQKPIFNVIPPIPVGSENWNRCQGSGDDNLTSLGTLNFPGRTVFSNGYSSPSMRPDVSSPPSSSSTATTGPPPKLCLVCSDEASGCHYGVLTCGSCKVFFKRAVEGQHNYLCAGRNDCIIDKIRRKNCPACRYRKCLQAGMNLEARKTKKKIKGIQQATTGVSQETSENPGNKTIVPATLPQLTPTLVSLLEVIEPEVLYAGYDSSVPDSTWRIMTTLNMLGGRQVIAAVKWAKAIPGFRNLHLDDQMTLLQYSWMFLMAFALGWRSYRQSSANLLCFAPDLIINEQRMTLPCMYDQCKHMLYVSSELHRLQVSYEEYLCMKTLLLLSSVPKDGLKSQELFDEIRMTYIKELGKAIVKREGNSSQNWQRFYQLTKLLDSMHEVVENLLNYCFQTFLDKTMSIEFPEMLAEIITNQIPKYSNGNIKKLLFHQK
Experiment: Glucocorticoid Receptor Binding Assay (II), fluorescence polarization competitor kit (Fluormone GS1)
Conditions: GR Binding Assay (II)
In short: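 Cell lysate with recombinant receptor incubated with 1 nM Fluormone GS1 tracer, with or without test compound, for one hour at room temperature. Binding read as displacement by fluorescence polarization.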

Ki	Compound
96.1 nM	CC(O)c1ccc(C(c2ccccc2)C(C)(C)C(=O)Nc2nncs2)cc1 (stereo not shown) [Example 372]
11 nM	CC(C)(C(=O)Nc1nccs1)C(c1ccccc1)c1ccc(-c2ccncc2)cc1 (stereo not shown) [Example 375, 2,2-dimethyl-3-phenyl-3-(4-(4-pyridinyl)phenyl)-N-1,3-thiazol-2-ylpropanamide]
15.8 nM	CC(C)(C(=O)Nc1nccs1)C(c1ccccc1)c1ccc(-c2ccoc2)cc1 (stereo not shown) [Example 376, 3-(4-(3-furanyl)phenyl)-2,2-dimethyl-3-phenyl-N-1,3-thiazol-2-ylpropanamide]

Continued, molecule first:

Compound	Ki
CC(=O)c1cccc(C(c2ccccc2)C(C)(C)C(=O)Nc2nccs2)c1 (stereo not shown) [Example 370, 3-(3-acetylphenyl)-2,2-dimethyl-3-phenyl-N-1,3-thiazol-2-ylpropanamide]	60.9 nM
CC(O)c1ccc(C(c2ccccc2)C(C)(C)C(=O)Nc2nccs2)cc1 (stereo not shown) [Example 371, 3-(4-(1-Hydroxyethyl)phenyl)-2,2-dimethyl-3-phenyl-N-1,3-thiazol-2-ylpropanamide]	38.1 nM
CC(O)c1cccc(C(c2ccccc2)C(C)(C)C(=O)Nc2nccs2)c1 (stereo not shown) [Example 373, 3-(3-(1-hydroxyethyl)phenyl)-2,2-dimethyl-3-phenyl-N-1,3-thiazol-2-ylpropanamide]	320 nM

Biological target: T2, human glucocorticoid receptor (Homo sapiens, UniProt P04150)
T2 construct: purified human recombinant full-length glucocorticoid receptor; purchased Invitrogen Part #2893
T2 sequence (P04150 1-777): T1 sequence (P04150 1-777)
Experiment: Glucocorticoid Receptor Binding Assay (I), fluorescence polarization competitor kit (Fluormone GS Red)
Conditions: GR Binding Assay (I)
Description: Glucocorticoid Receptor Binding Assay (I)^a
In order to assess the affinity of test compounds for the human glucocorticoid receptor, a commercially available kit was used (Glucocorticoid Receptor Competitor Assay Kit, Invitrogen Part #2893). Briefly, purified human recombinant full-length glucocorticoid receptor (2 nM) was mixed with fluorescently labeled glucocorticoid (1 nM Fluormone GS Red) in the presence or absence of test compound. After two hour incubation at room temperature in the dark, the fluorescence polarization (FP) of the samples was measured. […] Test compounds were analyzed in the concentration range from 8.5 E-05 μM to 5 μM.

Ki	Compound
9.22 nM	COc1ccc(C(c2ccccc2)C(C)(C)C(=O)Nc2nncs2)cc1C (single isomer, unassigned) [Example 294, 2,2-dimethyl-3-(3-methyl-4-(methyloxy)phenyl)-3-phenyl-N-1,3,4-thiadiazol-2-ylpropanamide]
13.9 nM	COc1ccc(C(c2ccccc2)C(C)(C)C(=O)Nc2nncs2)cc1C (single isomer, unassigned) [Example 295, 2,2-dimethyl-3-(3-methyl-4-(methyloxy)phenyl)-3-phenyl-N-1,3,4-thiadiazol-2-ylpropanamide]
24.5 nM	COc1ccc([C@@H](c2ccccc2)C(C)(C)C(=O)Nc2nncs2)cc1Br [Example 292, (3R)-3-(3-bromo-4-(methyloxy)phenyl)-2,2-dimethyl-3-phenyl-N-1,3,4-thiadiazol-2-ylpropanamide]
9.85 nM	COc1ccc(C(c2ccccc2)C(C)(C)C(=O)Nc2nncs2)cc1C (stereo not shown) [Example 293, 2,2-dimethyl-3-(3-methyl-4-(methyloxy)phenyl)-3-phenyl-N-1,3,4-thiadiazol-2-ylpropanamide]
187 nM	CC(C)(C(=O)Nc1nncs1)C(c1ccccc1)c1ccc(Cc2ccccc2)cc1 (stereo not shown) [Example 320, 2,2-dimethyl-3-phenyl-3-(4-(phenylmethyl)phenyl)-N-1,3,4-thiadiazol-2-ylpropanamide]
5.68 nM	CC(C)(C(=O)Nc1nccs1)C(c1ccccc1)c1ccc(Oc2ccccc2)cc1 (stereo not shown) [Example 321, 2,2-dimethyl-3-phenyl-3-(4-(phenyloxy)phenyl)-N-1,3-thiazol-2-ylpropanamide]
5.17 nM	CC(C)(C(=O)Nc1nncs1)C(c1ccccc1)c1ccc(Oc2ccccc2)cc1 (stereo not shown) [Example 322, 2,2-dimethyl-3-phenyl-3-(4-(phenyloxy)phenyl)-N-1,3,4-thiadiazol-2-ylpropanamide]
5.07 nM	CC(C)(C(=O)Nc1nncs1)C(c1ccccc1)c1ccc(Br)cc1 (stereo not shown) [Example 323, 3-(4-bromophenyl)-2,2-dimethyl-3-phenyl-N-1,3,4-thiadiazol-2-ylpropanamide]
9.36 nM	CC(C)(C(=O)Nc1nncs1)C(c1ccccc1)c1ccc(Br)cc1 (stereo not shown) [Example 324, 3-(4-bromophenyl)-2,2-dimethyl-3-phenyl-N-1,3,4-thiadiazol-2-ylpropanamide]
1.81 nM	COc1ccc(-c2ccc(C(c3ccccc3)C(C)(C)C(=O)Nc3nncs3)cc2)cc1 (stereo not shown) [Example 377, 2,2-dimethyl-3-(4′-(methyloxy)-4-biphenylyl)-3-phenyl-N-1,3,4-thiadiazol-2-ylpropanamide]
1.24 nM	CN(C)C(=O)c1ccc(-c2ccc(C(c3ccccc3)C(C)(C)C(=O)Nc3nncs3)cc2)cc1 (stereo not shown) [Example 379, 4′-(2,2-dimethyl-3-oxo-1-phenyl-3-(1,3,4-thiadiazol-2-ylamino)propyl)-N,N-dimethyl-4-biphenylcarboxamide]
24.2 nM	CN(C)C(=O)c1ccc(-c2ccc(C(c3ccccc3)C(C)(C)C(=O)Nc3nncs3)cc2)cc1 (stereo not shown) [Example 380, 4′-(2,2-dimethyl-3-oxo-1-phenyl-3-(1,3,4-thiadiazol-2-ylamino)propyl)-N,N-dimethyl-4-biphenylcarboxamide]
3.53 nM	CN(C)C(=O)c1ccc(-c2ccc(C(c3ccccc3)C(C)(C)C(=O)Nc3nccs3)cc2)cc1 (stereo not shown) [Example 381, 4′-(2,2-dimethyl-3-oxo-1-phenyl-3-(1,3-thiazol-2-ylamino)propyl)-N,N-dimethyl-4-biphenylcarboxamide]
9.18 nM	CC(C)Cc1ccc(-c2ccc(C(c3ccccc3)C(C)(C)C(=O)Nc3nncs3)cc2)cc1 (stereo not shown) [Example 383, 2,2-dimethyl-3-(4′-(2-methylpropyl)-4-biphenylyl)-3-phenyl-N-1,3,4-thiadiazol-2-ylpropanamide]
6.43 nM	CCCc1ccc(-c2ccc(C(c3ccccc3)C(C)(C)C(=O)Nc3nncs3)cc2)cc1 (stereo not shown) [Example 384, 2,2-dimethyl-3-phenyl-3-(4′-propyl-4-biphenylyl)-N-1,3,4-thiadiazol-2-ylpropanamide]
13.8 nM	CC(C)Oc1ccc(-c2ccc(C(c3ccccc3)C(C)(C)C(=O)Nc3nncs3)cc2)cc1F (stereo not shown) [Example 385, 3-(3′-fluoro-4′-((1-methylethyl)oxy)-4-biphenylyl)-2,2-dimethyl-3-phenyl-N-1,3,4-thiadiazol-2-ylpropanamide]

More lines, now with the values behind:

Compound	Ki
CC(C)(C)c1csc(NC(=O)C2(C(c3ccccc3)c3ccccc3)CCCC2)n1 [Example 151, N-(4-(1,1-dimethylethyl)-1,3-thiazol-2-yl)-1-(diphenylmethyl) cyclopentanecarboxamide]	1150 nM
O=C(Nc1nccs1)C1(C(c2ccccc2)c2ccccc2)CCC1 [Example 153, 1-(diphenylmethyl)-N-1,3-thiazol-2-ylcyclobutanecarboxamide]	23.2 nM
O=C(Nc1nccs1)C1(C(c2ccccc2)c2ccccc2)CCCCC1 [Example 156, 1-(diphenylmethyl)-N-1,3-thiazol-2-ylcyclohexanecarboxamide]	36.9 nM
CCC(CC)(C(=O)Nc1nccs1)C(c1ccccc1)c1ccccc1 [Example 159, 2-(diphenylmethyl)-2-ethyl-N-1,3-thiaozl-2-ylbutanamide]	101 nM
CCC(C)(C(=O)Nc1nccs1)C(c1ccccc1)c1ccccc1 (stereo not shown) [Example 176, 2-(diphenylmethyl)-2-methyl-N-1,3-thiazol-2-ylbutanamide]	54 nM
CC(C)(C(=O)Nc1nccs1)C(c1ccccc1)c1ccc(Cc2ccccc2)cc1 (stereo not shown) [Example 319, 2,2-dimethyl-3-phenyl-3-(4-(phenylmethyl)phenyl)-N-1,3-thiazol-2-ylpropanamide]	386 nM
CC(C)CC(c1ccc(Br)cc1)C(C)(C)C(=O)Nc1nccs1 (stereo not shown) [Example 386, 3-(4-bromophenyl)-2,2,5-trimethyl-N-1,3-thiazol-2-ylhexanamide]	20.6 nM
CC(C)CC(c1ccc(Br)cc1)C(C)(C)C(=O)Nc1nncs1 (stereo not shown) [Example 387, 3-(4-bromophenyl)-2,2,5-trimethyl-N-1,3,4-thiadiazol-2-ylhexanamide]	17.1 nM
Cc1nnc(NC(=O)C(C)(C)C(CC(C)C)c2ccc(N3CCOCC3)cc2)s1 (stereo not shown) [Example 388, 2,2,5-trimethyl-N-(5-methyl-1,3,4-thiadiazol-2-yl)-3-(4-(4-morpholinyl)phenyl)hexanamide]	14 nM
CC(C)CC(c1ccc(N2CCOCC2)cc1)C(C)(C)C(=O)Nc1nccs1 (stereo not shown) [Example 389, 2,2,5-trimethyl-3-(4-(4-morpholinyl)phenyl)-N-1,3-thiazol-2-ylhexanamide]	4.65 nM
CC(C)CC(c1ccc(N2CCOCC2)cc1)C(C)(C)C(=O)Nc1nncs1 (stereo not shown) [Example 390, 2,2,5-trimethyl-3-(4-(4-morpholinyl)phenyl)-N-1,3,4-thiadiazol-2-ylhexanamide]	5.41 nM
COc1ccc(-c2ccc(C(CC(C)C)C(C)(C)C(=O)Nc3nccs3)cc2)cc1 (stereo not shown) [Example 391, 2,2,5-trimethyl-3-(4′-(methyloxy)-4-biphenylyl)-N-1,3-thiazol-2-ylhexanamide]	11.1 nM
